# Test results reported in US20260232752A1, “COMBINATION THERAPY METHODS, COMPOSITIONS AND KITS” (Accure Therapeutics, S.L., priority 2019, published 2026).
# Structures can show the parent of a compound that is named as a salt.
# Assays:
# [1] = system: human neuroblastoma cell line SH-SY5Y; experiment: Neuroprotection against H2O2 oxidative stress, MTT assay; type: cell-based; conditions: 1 hour preincubation at 0.03-40 μM, then H2O2 15 μM 30 minutes
# Procedure: The objective of the study was to test the possible synergistic effect of the BN201-monomethylfumarate salt in a neuroprotective assay. Thus, BN201-monomethylfumarate salt obtained as indicated in example 5, was tested for its ability to protect the human neuroblastoma cell line SH-SY5Y against death induced by oxidative stress (i.e., hydrogen peroxide (H202)) using an MTT (3-(4,5-dimethylthiazol-2-yl)-2,5-diphenyltetrazolium bromide) cell proliferation assay.
# SH-SY5Y cells were cultivated in 50% Eagle's minimum essential medium (EMEM), 50% Ham's F12 Nutrient Mixture, 10% fetal bovine serum (FBS), 2 mM L-Glu, and 1% penicillin/streptomycin. All of the cell cultures were maintained in a humidified incubator at 5% CO2 and at 37° C. SH-SY5Y cells were preincubated for 1 hour with BN201 alone, monomethyl fumarate alone, or BN201-monomethylfumarate salt at various concentrations (n=5; concentrations: 0.03 μM, 0.1 μM, 0.3 μM, 0.5 μM, 1 μM, 3 μM, 5 μM, 10 μM, 20 μM, 40 μM) and then H2O2 (15 μM) was added to induce stress. Preincubation with sodium pyruvate (10 mM) was used as a positive control. After 30 minutes of H2O2 incubation, the medium was changed and thiazolyl blue tetrazolium bromide (MTT; Sigma Aldrich; stock concentration 10 mg/ml) was added to each well at the final concentration of 0.5 mg/ml. After 2 hours of MTT incubation the cell medium was removed, and cells were resuspended in pure dimethyl sulfoxide (DMSO). Cell viability was determined by reading the absorbance at 570 nm. Each experiment was performed in quintuplicate.
# [2] = system: experimental autoimmune encephalomyelitis (EAE) mouse model; experiment: Study EAE-C05: clinical score in EAE mouse model with active comparators; type: in vivo; conditions: 2 mg/kg daily, after 5 days of treatment
# Procedure: A second experiment (Study EAE-C05) was then performed using the same mouse model.
# Study EAE-C05: In addition to two dose levels of BN201 and a placebo-treated group (pathological control group), the study design introduced two active comparators, dimethyl fumarate (DMF) and fingolimod (FTY720), and a sham group (group in which animals were manipulated as the pathological group but without MOG injection). All groups were administered daily. • sham control non-diseased placebo-treated animals (healthy control group); • EAE-affected placebo-treated animals (pathological control group); • EAE-affected animals treated orally with 15 mg/kg of DMF; • EAE-affected animals treated with 2 mg/kg of FTY720; • EAE-affected animals treated with BN201 at 50 or 100 mg/kg.
# (§1) Clinical scores were assigned to assess disease severity using the following scale: 0=normal; 0.5=Partial tail paralysis; 1=Complete tail paralysis; 1.5=Tail paralysis and loss of righting reflex; 2=Partial hind limb paralysis/paralysis of one limb; 2.5=One limb paralysis and partial loss of activity of one other limb; 3=Bilateral hind limb paralysis; 4=Moribund; 5=exitus.
# Therapeutic treatment was initiated on day 12 or 13, once each mouse started showing complete tail paralysis (Score 1).
# [3] = system: experimental autoimmune encephalomyelitis (EAE) mouse model; experiment: Study EAE-C06: dose response of BN201, clinical score in EAE mouse model; type: in vivo; conditions: 2 mg/kg daily, almost all days of observation/treatment (Day 2 to day 30)
# Procedure: A third experiment (Study EAE-C06) to test dose response of BN201 was then performed using the same mouse model.
# Study EAE-C06: five different concentrations of BN201: 12.5 mg/kg, 25 mg/kg, 50 mg/kg, 100 mg/kg, and 150 mg/kg. Also sham, pathological control and FTY720 (2 mg/kg) comparator groups were included in the experiment. All groups were administered daily.
# as §1
# Therapeutic treatment was initiated on day 12 once each mouse started showing complete tail paralysis (Score 1).
# Data are depicted in FIG. 1 (C), wherein the clinical score for each of the tested groups is plotted per day after disease onset.
# [4] = system: non-obese diabetic mouse model of relapsing-remitting EAE; conditions: cited from earlier work
# [5] = system: rat model of experimental autoimmune encephalomyelitis (EAE); conditions: cited from earlier work
# [6] = system: EAE in C57BL6 mice immunized with MOG35-55; experiment: Example 4: BN201 and STAT3 inhibitor combination, chronic phase of EAE; type: in vivo, mouse; conditions: S31-201 5 mg/kg i.p. alone (optimal), from day 34 to day 54
# Procedure: Effect during the chronic phase of the disease in the animal model of Multiple Sclerosis (i.e., EAE in C57BL6 mice immunized with MOG35-55)
# Efficacy and safety of combination therapy with optimal doses of BN201 (50 mg/kg) and S31-201 (5 mg/kg) in the progression of chronic EAE in mice.
# Starting the chronic phase of the disease (by day 34) mice were administered: • the STAT3 inhibitor S31-201 (group A, 7 mice), • BN201 (group B, 6 mice), or • a combination thereof (group C, 6 mice) once a day for six days per week at optimal dosages (5 mg/kg for S31-201, 50 mg/kg for BN201).
# S31-201 and BN201 were administered via i.p. injection in a saline vehicle at a volume of 5 mL/kg. Control mice received vehicle only via both oral and i.p. injection (group D, 6 mice) or nothing at all (group E, 2 mice). Mice were treated from day 34 (chronic EAE stage) until the end of the experiment on day 54.
# The combination of BN201 and the STAT3-inhibitor S31-201 was evaluated for its effect during the chronic phase of the disease in the animal model of Multiple Sclerosis (i.e., EAE in C57BL6 mice immunized with MOG35-55). The objective of the study was to evaluate the efficacy and safety of combination therapy with optimal doses of BN201 (50 mg/kg) and 531-201 (5 mg/kg) in the progression of chronic EAE in mice. […]
# [7] = system: EAE in C57BL6 mice immunized with MOG35-55; experiment: Example 3: BN201 and DMF combination, progression of chronic EAE; type: in vivo, mouse; conditions: DMF 10 mg/kg oral alone (suboptimal), once a day six days per week from day 15
# Procedure: Effect in the animal model of MS (i.e., EAE in C57BL6 mice immunized with MOG35-55), similar to Example 2.
# Starting on day 15, mice were administered: • dimethyl fumarate (DMF) (group A, 10 mice), • BN201 (group B, 10 mice) • a combination thereof (group C, 10 mice) once a day for six days per week at suboptimal dosages (10 mg/kg for DMF, 25 mg/kg for BN201).
# DMF was administered orally with a rigid cannula in a saline vehicle at a volume of 10 mL/kg, while BN201 was administered via i.p. injection in a saline vehicle at a volume of 5 mL/kg. Control mice received vehicle only via both oral and i.p. injection (group D, 10 mice) or nothing at all (group E, 2 mice).
# The objective of the study was to evaluate the efficacy and safety of combination therapy with suboptimal doses of BN201 (25 mg/kg) and dimethyl-fumarate (DMF) (10 mg/kg) in the progression of chronic EAE in mice.
# During a one week acclimation period starting on day −7, mice were distributed based on body weight stratification into different experimental groups. On day 0, mice were immunized subcutaneously in both hind pads with 150 μg of MOG peptide 35-55 (Spikem, Firenze) emulsified with 50 μg of Mycobacterium tuberculosis (H37Ra strain; Difco, Detroit, MI) in incomplete Freund's adjuvant (IFA). […]
compound,measurement,setting,value
"COC(=O)/C=C/C(=O)O [fumarate, fumaric acid monomethyl ester, reference compound]",cell viability as a percentage compared to the control (protection from death induced by oxidative stress),[1],partially rescued neurons from death induced by oxidative stress
"CCCCCCCCc1ccc(CCC(N)(CO)CO)cc1 [FTY720, Fingolimod, reference compound]",clinical score compared to pathological control group,[2],significantly lower
same,clinical score,[3],significant amelioration of the clinical score
CC(C)CN(CC(=O)N(CCCN1CCCC1=O)CC(N)=O)C(=O)CNCCc1ccccc1F [BN201-monomethylfumarate salt],cell viability as a percentage compared to the control (protection from death induced by oxidative stress),[1],increased
same,cell viability as a percentage compared to the control (protection from death induced by oxidative stress),[1]; listed as BN201-monomethylfumarate,significantly higher level of neuroprotection than either compound alone
"CCCc1ccc(COc2ccc3c(c2)CCC(CN2CC(C(=O)O)C2)=C3C)c(OC)c1 [Ceralifimod, 1-[[6-[(2-methoxy-4-propylphenyl)methoxy]-1-methyl-3,4-dihydronaphthalen-2-yl]methyl]azetidine-3-carboxylic acid]",disease relapse,[4],prevents disease relapse
same,disease onset,[5],delays disease onset
same,lymphocyte infiltration of the spinal cord,[5],inhibits lymphocyte infiltration of the spinal cord
"Cc1ccc(S(=O)(=O)OCC(=O)Nc2ccc(C(=O)O)c(O)c2)cc1 [S31-201, 2-Hydroxy-4-[[[[(4-methylphenyl)sulfonyl]oxy]acetyl]amino]-benzoic acid, reference compound]",course of EAE in chronic phase (clinical score),[6],not efficacious
"COC(=O)/C=C/C(=O)OC [DMF, Dimethyl fumarate, reference compound]",course of EAE (clinical score) versus placebo,[7],suffered EAE similar to those mice treated with placebo
